Assay results taken from patent US12479830B2, “Homopiperazinyl and homopiperidinyl quinazolin-4(3H)-one derivatives having multimodal activity against pain” (ESTEVE PHARMACEUTICALS, S.A., priority 2019, dated 2025).

Experiments:
[1] = molecular target: Human α2δ-1 subunit of Cav2.2 calcium channel (Homo sapiens, UniProt P54289); assay: Human α2δ-1 subunit of Cav2.2 calcium channel assay ([3H]-gabapentin binding); conditions: binding to the α2δ-1 subunit of voltage-gated calcium channels, expressed as Ki class; + also covers inhibition between 1% and 50%
Method in brief: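 Human α2δ-1 enriched membranes (2.5 μg) incubated 60 min at 27° C. with 15 nM [3H]-gabapentin in 10 mM Hepes-KOH pH 7.4; non-specific binding with 10 μM pregabalin. Filtration binding; % inhibition at 1 or 10 μM, or Ki from five concentrations.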

[2] = molecular target: T1, Human σ1 receptor (Homo sapiens, UniProt Q99720); assay: Human σ1 receptor radioligand assay ([3H](+)-pentazocine binding); conditions: binding to the σ1 receptor, expressed as Ki class; + also covers inhibition between 1% and 50%
T1 construct: expressed in transfected cells; host or cells: HEK-293
Method in brief: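 Membranes (7 μg) were incubated with 5 nM [3H](+)-pentazocine in 50 mM Tris-HCl pH 8 for 120 min at 37° C. Non-specific binding was defined with 10 μM haloperidol. Values are % inhibition at 1 or 10 μM or Ki from five concentrations, read by filtration and scintillation counting.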

T1 sequence (Q99720 whole entry): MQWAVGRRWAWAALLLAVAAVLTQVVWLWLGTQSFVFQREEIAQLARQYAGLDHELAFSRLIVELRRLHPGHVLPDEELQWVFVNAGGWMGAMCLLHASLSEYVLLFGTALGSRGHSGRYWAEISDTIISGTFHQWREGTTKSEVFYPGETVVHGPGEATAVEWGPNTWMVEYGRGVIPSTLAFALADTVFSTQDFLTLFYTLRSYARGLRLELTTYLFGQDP
Sequence of Human α2δ-1 subunit of Cav2.2 calcium channel (P54289 25-1103): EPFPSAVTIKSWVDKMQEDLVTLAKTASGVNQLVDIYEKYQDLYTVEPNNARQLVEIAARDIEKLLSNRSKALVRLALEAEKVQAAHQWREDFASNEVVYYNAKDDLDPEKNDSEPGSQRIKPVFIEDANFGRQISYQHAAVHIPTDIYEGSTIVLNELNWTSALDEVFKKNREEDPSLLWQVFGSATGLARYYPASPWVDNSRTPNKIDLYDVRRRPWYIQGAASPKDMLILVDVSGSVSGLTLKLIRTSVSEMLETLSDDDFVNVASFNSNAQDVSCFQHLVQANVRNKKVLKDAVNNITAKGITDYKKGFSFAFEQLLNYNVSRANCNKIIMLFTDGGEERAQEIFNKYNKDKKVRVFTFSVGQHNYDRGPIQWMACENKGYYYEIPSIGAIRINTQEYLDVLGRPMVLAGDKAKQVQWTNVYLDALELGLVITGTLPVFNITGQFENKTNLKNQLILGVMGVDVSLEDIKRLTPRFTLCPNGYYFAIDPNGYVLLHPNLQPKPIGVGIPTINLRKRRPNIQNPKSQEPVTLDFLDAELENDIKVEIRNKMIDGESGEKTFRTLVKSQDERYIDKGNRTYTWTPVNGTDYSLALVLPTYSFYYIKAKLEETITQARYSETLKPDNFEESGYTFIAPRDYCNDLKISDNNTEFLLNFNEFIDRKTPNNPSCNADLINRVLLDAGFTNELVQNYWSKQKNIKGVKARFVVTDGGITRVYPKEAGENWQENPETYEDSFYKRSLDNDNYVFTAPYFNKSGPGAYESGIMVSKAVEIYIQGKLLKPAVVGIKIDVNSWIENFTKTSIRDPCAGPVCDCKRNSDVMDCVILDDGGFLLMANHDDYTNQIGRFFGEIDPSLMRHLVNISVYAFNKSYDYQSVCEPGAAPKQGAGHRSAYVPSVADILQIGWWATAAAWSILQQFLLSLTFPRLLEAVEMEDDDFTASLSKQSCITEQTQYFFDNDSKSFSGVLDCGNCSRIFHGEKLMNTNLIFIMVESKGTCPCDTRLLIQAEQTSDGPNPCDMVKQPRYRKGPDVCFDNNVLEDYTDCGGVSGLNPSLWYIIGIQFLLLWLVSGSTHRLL

Row | Compound | Ki [1] | Ki [2]
1 | CCCC(c1nc2cccnc2c(=O)n1CC)N1CCCN(CC)CC1 (stereo not shown) [Example 88, 3-ethyl-2-(1-(4-ethyl-1,4-diazepan-1-yl)butyl)pyrido[3,2-d]pyrimidin-4(3H)-one] | > 5000 nM | > 1000 nM
2 | CCC[C@@H](c1nc2ccc(Br)cc2c(=O)n1CC)N1CCN[C@H](C)CC1 [Example 94, 6-bromo-3-ethyl-2-((S)-1-((R)-5-methyl-1,4-diazepan-1-yl)butyl)quinazolin-4(3H)-one] | 500 to 5000 nM | > 1000 nM
3 | CCC[C@@H](c1nc2ccc(Br)cc2c(=O)n1CC)N1CCN[C@@H](C)CC1 [Example 95, 6-bromo-3-ethyl-2-((S)-1-((S)-5-methyl-1,4-diazepan-1-yl)butyl)quinazolin-4(3H)-one] | > 5000 nM | > 1000 nM
4 | CCC[C@@H](c1nc2cc(F)c(Br)cc2c(=O)n1CC)N1CCNC[C@H](C)C1 [Example 98] | 500 to 5000 nM | > 1000 nM
5 | CCC[C@@H](c1nc2cc(F)c(Br)cc2c(=O)n1CC)N1CCNC[C@@H](C)C1 [Example 99] | 500 to 5000 nM | > 1000 nM
6 | CCCC(c1nc2cccnc2c(=O)n1CC)N1CCCNCC1 (stereo not shown) [Example 100, 2-(1-(1,4-diazepan-1-yl)butyl)-3-ethylpyrido[3,2-d]pyrimidin-4(3H)-one] | > 5000 nM | > 1000 nM
7 | CCC[C@H](c1nc2ccc(Br)cc2c(=O)n1CC)N1CCN(C)C[C@H](COC)C1 [Example 105, 6-Bromo-3-ethyl-2-((R)-1-((S)-6-(methoxymethyl)-4-methyl-1,4-diazepan-1-yl)butyl)quin-4 (3H)-one] | 500 to 5000 nM | > 1000 nM
8 | CCC[C@@H](c1nc2ccc(Br)cc2c(=O)n1CC)N1CCN(C)C[C@H](COC)C1 [Example 107, 6-bromo-3-ethyl-2-((S)-1-((S)-6-(methoxymethyl)-4-methyl-1,4-diazepan-1-yl)butyl)quinazolin-4(31-)-one] | 500 to 5000 nM | 500 to 1000 nM
9 | CCC[C@@H](c1nc2ccc(Br)cc2c(=O)n1CC)N1CCN(C)C[C@@H](COC)C1 [Example 108, 6-bromo-3-ethyl-2-((S)-1-((R)-6-(methoxymethyl)-4-methyl-1,4-diazepan-1-yl)butyl)quinazolin-4(3/1)-one] | > 5000 nM | 500 to 1000 nM
10 | CCC[C@@H](c1nc2cc(Cl)c(Cl)cc2c(=O)n1CC)N1CCNC[C@H](C)C1 [Example 111, 6,7-dichloro-3-ethyl-2-((S)-1-((S)-6-methyl-1,4-diazepan-1-yl)butyl)quinazolin-4(3H)-one] | 500 to 5000 nM | > 1000 nM
11 | CCC[C@@H](c1nc2cc(Cl)c(Cl)cc2c(=O)n1CC)N1CCNC[C@@H](C)C1 [Example 112, 6,7-dichloro-3-ethyl-2-((S)-1-((R)-6-methyl-1,4-diazepan-1-yl)butyl)quinazolin-4 (3H)-one] | > 5000 nM | > 1000 nM
12 | CCC[C@@H](c1nc2ccc(Br)cc2c(=O)n1CC)N1CCNC[C@@H](O)C1 [Example 113, 6-Bromo-3-ethyl-2-((S)-1-((R)-6-hydroxy-1,4-diazepan-1-yl)butyl)quinazolin-4(3H)-one] | > 5000 nM | > 1000 nM
13 | CCC[C@@H](c1nc2ccc(Br)cc2c(=O)n1CC)N1CCNC[C@H](O)C1 [Example 115, 6-bromo-3-ethyl-2-((S)-1-((S)-6-hydroxy-1,4-diazepan-1-yl)butyl)quinazolin-4(3H)-one] | > 5000 nM | > 1000 nM
14 | CCCC(c1nc2c(F)cc(OC)cc2c(=O)n1CC)N1CCCN(C)CC1 (stereo not shown) [Example 117, 3-ethyl-8-fluoro-6-methoxy-2-(1-(4-methyl-1,4-diazepan-1-yl)butyl)quinazolin-4(3H)-one] | 500 to 5000 nM | 500 to 1000 nM
15 | CCC[C@@H](c1nc2cc(F)c(Cl)cc2c(=O)n1CC)N1CCNC[C@H](C)C1 [Example 120, 6-chloro-3-ethyl-7-fluoro-2-((S)-1-((S)-6-methyl-1,4-diazepan-1-yl)butyl)quinazolin-4(3H)-one] | > 5000 nM | > 1000 nM
16 | CCC[C@@H](c1nc2cc(F)c(Cl)cc2c(=O)n1CC)N1CCNC[C@@H](C)C1 [Example 121, 6-chloro-3-ethyl-7-fluoro-2-((S)-1-((R)-6-methyl-1,4-diazepan-1-yl)butyl)quinazolin-4 (3H)-one] | > 5000 nM | > 1000 nM
17 | CCCC(c1nc2ccc(Br)cc2c(=O)[nH]1)N1CCCN(C)CC1 (stereo not shown) [Example 122, 6-bromo-2-(1-(4-methyl-1,4-diazepan-1-yl)butyl)quinazolin-4(3H)-one] | > 5000 nM | 500 to 1000 nM
18 | CCC[C@@H](c1nc2ccc(Br)cc2c(=O)n1CC)N1CCN(C)C[C@@H](CO)C1 [Example 124, 6-bromo-3-ethyl-2-((S)-1-((R)-6-(hydroxymethyl)-4-methyl-1,4-diazepan-1-yl)butyl)quinazolin-4(3H)-one] | 500 to 5000 nM | > 1000 nM
19 | CCC[C@H](c1nc2ccc(Br)cc2c(=O)n1CC)N1CCN(C)C[C@@H](CO)C1 [Example 125, 6-bromo-3-ethyl-2-((R)-1-((R)-6-(hydroxymethyl)-4-methyl-1,4-diazepan-1-yl)butyl)quinazolin-4(3H)-one] | 500 to 5000 nM | 500 to 1000 nM
20 | CCC[C@@H](c1nc2ccc(Br)cc2c(=O)n1CC)N1CCN(C)C[C@H](CO)C1 [Example 126, 6-bromo-3-ethyl-2-((S)-1-((S)-6-(hydroxymethyl)-4-methyl-1,4-diazepan-1-yl)butyl)quinazolin-4(3H)-one] | 500 to 5000 nM | 500 to 1000 nM

Other lines, results leading:

Row | Ki [1] | Ki [2] | Compound
21 | < 500 nM | < 500 nM | CCCC(c1nc2cc(F)c(Cl)cc2c(=O)n1CC)N1CCCN(C)CC1 (stereo not shown) [Example 89, 6-chloro-3-ethyl-7-fluoro-2-(1-(4-methyl-1,4-diazepan-1-yl)butyl)quinazolin-4(3H)-one]
22 | < 500 nM | > 1000 nM | CCCC(c1nc2cc(F)c(Cl)cc2c(=O)n1CC)N1CCCNCC1 (stereo not shown) [Example 90, 2-(1-(1,4-diazepan-1-yl)butyl)-6-chloro-3-ethyl-7-fluoroquinazolin-4(3H)-one]
23 | < 500 nM | 500 to 1000 nM | CCCC(c1nc2cc(Cl)c(Cl)cc2c(=O)n1CC)N1CCCNCC1 (stereo not shown) [Example 91, 2-(1-(1,4-diazepan-1-yl)butyl)-6,7-dichloro-3-ethylquinazolin-4(3H)-one]
24 | 500 to 5000 nM | > 1000 nM | CCC[C@H](c1nc2ccc(Br)cc2c(=O)n1CC)N1CCN[C@H](C)CC1 [Example 92, 6-bromo-3-ethyl-2-((R)-1-((R)-5-methyl-1,4-diazepan-1-yl)butyl)quinazolin-4(3H)-one]
25 | < 500 nM | 500 to 1000 nM | CCC[C@H](c1nc2ccc(Br)cc2c(=O)n1CC)N1CCN[C@@H](C)CC1 [Example 93, 6-bromo-3-ethyl-2-((R)-1-((S)-5-methyl-1,4-diazepan-1-yl)butyl)quinazolin-4(3H)-one]
26 | < 500 nM | 500 to 1000 nM | CCC[C@H](c1nc2cc(F)c(Br)cc2c(=O)n1CC)N1CCNC[C@H](C)C1 [Example 96, 6-Bromo-3-ethyl-7-fluoro-2-((R)-1-((S)-6-methyl-1,4-diazepan-1-yl)butyl)quinazolin-4(3H)-one]
27 | < 500 nM | 500 to 1000 nM | CCC[C@H](c1nc2cc(F)c(Br)cc2c(=O)n1CC)N1CCNC[C@@H](C)C1 [Example 97, 6-bromo-3-ethyl-7-fluoro-2-((R)-1-((R)-6-methyl-1,4-diazepan-1-yl)butyl)quinazolin-4(3H)-one]
28 | < 500 nM | > 1000 nM | CCC[C@H](c1nc2ccc(Br)cc2c(=O)n1CC)N1CCN(C)C[C@@H](COC)C1 [Example 106, 6-bromo-3-ethyl-2-((R)-1-((R)-6-(methoxymethyl)-4-methyl-1,4-diazepan-1-yl)butyl)quinazolin-4(3H)-one]
29 | < 500 nM | > 1000 nM | CCC[C@H](c1nc2cc(Cl)c(Cl)cc2c(=O)n1CC)N1CCNC[C@H](C)C1 [Example 109, 6,7-Dichloro-3-ethyl-2-((R)-1-((S)-6-methyl-1,4-diazepan-1-yl)butyl)quinazolin-4(3H)-one]
30 | < 500 nM | > 1000 nM | CCC[C@H](c1nc2cc(Cl)c(Cl)cc2c(=O)n1CC)N1CCNC[C@@H](C)C1 [Example 110, 6,7-dichloro-3-ethyl-2-((R)-1-((R)-6-methyl-1,4-diazepan-1-yl)butyl)quinazolin-4(3H)-one]
31 | < 500 nM | > 1000 nM | CCC[C@H](c1nc2ccc(Br)cc2c(=O)n1CC)N1CCNC[C@@H](O)C1 [Example 114, 6-bromo-3-ethyl-2-((R)-1-((R)-6-hydroxy-1,4-diazepan-1-yl)butyl)quinazolin-4(3H)-one]
32 | < 500 nM | > 1000 nM | CCC[C@H](c1nc2ccc(Br)cc2c(=O)n1CC)N1CCNC[C@H](O)C1 [Example 116, 6-bromo-3-ethyl-2-((R)-1-((S)-6-hydroxy-1,4-diazepan-1-yl)butyl)quinazolin-4(3H)-one]
33 | < 500 nM | 500 to 1000 nM | CCC[C@H](c1nc2cc(F)c(Cl)cc2c(=O)n1CC)N1CCNC[C@H](C)C1 [Example 118, 6-Chloro-3-ethyl-7-fluoro-2-((R)-1-((S)-6-methyl-1,4-diazepan-1-yl)butyl)quinazolin-4(3H)-one]
34 | < 500 nM | 500 to 1000 nM | CCC[C@H](c1nc2cc(F)c(Cl)cc2c(=O)n1CC)N1CCNC[C@@H](C)C1 [Example 119, 6-chloro-3-ethyl-7-fluoro-2-((R)-1-((R)-6-methyl-1,4-diazepan-1-yl)butyl)quinazolin-4(3H)-one]
35 | < 500 nM | 500 to 1000 nM | CCC[C@H](c1nc2ccc(Br)cc2c(=O)n1CC)N1CCN(C)C[C@H](CO)C1 [Example 123, 6-Bromo-3-ethyl-2-((R)-1-((S)-6-(hydroxymethyl)-4-methyl-1,4-diazepan-1-yl)butyl)quinazolin-4(3H)-one]
